# Results reported in patent US20230279379A1, “METHODS AND MICROFLUIDIC DEVICE FOR PRODUCING EXTRACELLULAR VESICLES” (THE BOARD OF TRUSTEES OF THE UNIVERSITY OF ILLINOIS, priority 2022, published 2023).
# Entries after “also recorded” stand apart in the source; their conditions may differ. Where no end group is shown, it is not given here.
# Test system: Primary human MSCs
# Test: EV secretion per cell from MSCs on hydrogel substrates, nanoparticle tracking analysis
# Type: cell-based
# Details: for EV secretion vs vehicle: 3 μM MnCl2 during and after adhesion, elastic alginate-RGD hydrogels, soft and stiff
# Method: Cell Seeding on Hydrogels. Hydrogel discs were placed in ultra-low binding polystyrene well plates (Corning) to ensure cells attach to hydrogels and not the plate surface. Hydrogels were washed with Hank's buffered salt solution (HBSS, Thermo Fisher Scientific) for at least 3 days before seeding cells. Cells were seeded at a low density (25 cells/mm^2). After seeding, hydrogels were washed thoroughly to remove unattached cells. Drug treatments of 3 μM MnCl2 (Thermo Fisher Scientific), 200 nM EMD 121974 sold under the tradename Cilengitide® (Cayman) and 5 μM CK869 (Cayman) were applied during and after cell adhesion to substrates. To evaluate the number of live cells seeded on substrates, cells were detached by incubating with a natural enzyme mixture with proteolytic and collagenolytic enzyme activity sold under the tradename ACCUTASE® Cell Detachment Solution (Innovative Cell Technologies, Inc.) for 10 minute at 37° C. Cells were then washed by centrifugation and directly added to HBSS containing calcein AM (1:2000; Biotium), ethidium bromide (1:2000; Thermo Fisher Scientific), and a predefined number of allophycocyanin (APC) beads (BD). After incubation at room temperature (RT) for 10 minutes, the samples were analyzed for live and dead cell number by flow cytometry.
# Particle Size and Number Characterization. Particle size and number were obtained using Nanoparticle Tracking Analysis 3.2 (NTA) via NanoSight NS300 (Malvern) using a 405 nm laser. Samples were introduced by syringe pump at a rate 100 μL/min. Three thirty-second videos were acquired using camera level 14 followed by detection threshold 7. Camera focus, shutter, blur, minimum track length, minimum expected particle size and maximum jump length were set automatically by the software. Samples were diluted as needed to maintain particles per video from 100-2000. To ensure specificity, all samples were tested as compared to appropriate blank conditions.
# To test the effect of substrate mechanics on EV secretion from MSCs, hydrogel substrates were engineered which were composed of alginate polymer conjugated with the cell adhesion peptide Arg-Gly-Asp (RGD) that binds primarily to αvβ3 and α5β1 integrins. Alginate-RGD hydrogels can be formed either covalently through adipic acid dihydrazide or physically through divalent cations, resulting in elastic or stress-relaxing hydrogels, respectively. For both types of hydrogels, elastic modulus (Young's modulus, E) of ˜3 kPa ‘soft’ and E ˜20 kPa ‘stiff’ were considered values that represent a physiologically relevant range of substrate elasticity for MSC mechanosensing, while E is ˜0.1 GPa for conventional plastic substrates. Primary human bone marrow MSCs were allowed to adhere to substrates for 24 hours followed by washout and collection of the serum-free conditioned medium from MSCs after 24 hours. After centrifugation of the medium at 10,000 g to remove cell, apoptotic, and larger particle fractions, particles remaining in the medium were analyzed by nanoparticle tracking analysis and normalized to the number of live adhered cells counted by flow cytometry (see Methods). MSCs were seeded at low density (˜25 cells/mm^2) to avoid potential effects from cell-cell interactions. […] Thus, focus was placed on the EVs remaining in the supernatant after the 10,000 g centrifugation. For these EVs, the particle size distribution remained similar across different substrates with median diameter ˜120 nm (FIG. 1B). […] Moreover, EVs from different substrates expressed similar levels of late endosomal markers CD63 and CD9. Importantly, levels of ribosomal RNA (rRNA) in particle preparations were similar across hydrogels or plastic substrates, and rRNA as a percentage of total RNA was lower than that found in untreated MSCs or particles derived from H2O2-treated apoptotic MSCs, ruling out apoptosis as a potential factor of increased EV secretion on the soft hydrogel. […]
molecule,measurement,setting,value
"RGD: cell adhesion peptide, amino acid sequence GGGGRGDSP (SEQ ID NO:1), conjugated to hydrogel (also: conjugated to hydrogel)",EV secretion on decreasing the amount of RGD conjugated in hydrogels,FIG. 5,significantly increases EV secretion
same,increase in EV secretion per cell,"decreasing RGD concentration from 0.8 to 0.16 mM, both soft and stiff hydrogels",~2 fold
[Cl][Mn][Cl] [MnCl2],EV secretion vs vehicle,,inhibits EV secretion
same,EV secretion vs vehicle,listed as Mn^2+,decreased to a greater extent on the soft hydrogel than the stiff hydrogel
Cc1ccc2c(c1)C(=O)C1(O)CCN(c3ccccc3)C1=N2 (stereo not drawn) [blebbistatin],exosome secretion,"50 μM blebbistatin, soft or stiff elastic alginate-RGD hydrogels",did not impact exosome secretion
CC(C)[C@H]1C(=O)N[C@@H](CCCN=C(N)N)C(=O)NCC(=O)N[C@@H](CC(=O)O)C(=O)N[C@H](Cc2ccccc2)C(=O)N1C [EMD 121974],EV secretion,"200 nM EMD 121974 during and after adhesion, soft and stiff hydrogels",significantly increased EV secretion on both soft and stiff hydrogels; also recorded: enhances EV secretion
